Tests used:
Test in all cases: Kinase selectivity profile, 33P-ATP filter-binding assay
Type in all cases: biochemical
BTK = BTK (Homo sapiens, UniProt Q06187)
Experimental: (§1) Figure 5 Kinase selectivity profile of 1b. Compound 1b was profiled against a selected panel of 95 different kinases at a concentration of 10 µM employing a radioactive (^33P-ATP) filter-binding assay (National Centre for Protein Kinase Profiling, Dundee). The numbers represent the remaining kinase activity in %. […] TEXT PRINTED IN THE PICTURE: no label printed: Aurora B: 53; MNK2: 67; MINK1: 69; HER4: 71; MKK1: 75; PKBβ: 75; PHK: 76; PIM2: 76; PIM3: 77; CHK2: 78; PKD1: 79; TBK1: 79; PAK4: 80; Lck: 80; GSK3β: 80; IGF-1R: 81; p38δ MAPK: 81; PIM1: 82; SRPK1: 83; SmMLCK: 83; MAPKAP-K3: 84; EPH A2: 85; MELK: 85; CK2: 85; CK1: 86; CAMK1: 86; PLK1: 87; MST2: 87; IR-HIS: 87; BTK: 87; HIPK1: 87; p38α MAPK: 88; DYRK2: 88; JNK3: 88; PAK5: 88; IKKε: 89; p38β MAPK: 89; NUAK1: 90; PAK2: 90; MNK1: 91; ERK8: 91; GCK: 91; PRAK: 91; MLK1: 92; SGK1: 92; PAK6: 92; TTK: 92; BRSK2: 92; MARK4: 93; CHK1: 93; RIPK2: 94; CDK2-Cyclin A: 94; JNK1: 94; AMPK: 94; VEG-FR: 95; DYRK1A: 95; CAMKKβ: 95; PKCα: 96; S6K1: 96; MSK1: 96; PKCz: 96; YES1: 96; RSK1: 97; IRAK4: 97; DYRK3: 97; IKKβ: 97; ERK2: 98; MLK3: 98; RSK2: 98; LKB1: 98; MAPKAP-K2: 98; ERK1: 99; FGF-R1: 99; SYK: 99; MST4: 99; MARK3: 99; MARK2: 100; PDK1: 100; JNK2: 101; HIPK2: 101; BRSK1: 102; EF2K: 102; PRK2: 103; Aurora A: 104; IRR: 104; CSK: 104; PKA: 104; NEK6: 105; p38γ MAPK: 105; Src: 107; PKBα: 109; ROCK 2: 109; EPH-B3: 112; HIPK3: 115; NEK2α: 119 DOUBTS OF THE COPYIST ABOUT THIS PICTURE: The picture prints no compound label and no measure or unit for the numbers; only the colour scale 'Inhibition weak/strong' is printed. / PKCz: the last letter may be z or ζ / NEK2α: the last letter may be a or α / IKKε: the last letter may be ε or e

CK1 = CK1 (Homo sapiens, UniProt P48730)
Experimental: as §1

CK2 = CK2 (Homo sapiens, UniProt P68400)
Experimental: as §1

EPH-B3 = EPH-B3 (Homo sapiens, UniProt P54753)
Experimental: as §1

ERK2 = ERK2 (Homo sapiens, UniProt P28482)
Experimental: as §1

FGF-R1 = FGF-R1 (Homo sapiens, UniProt P11362)
Experimental: as §1

GSK3β = GSK3β (Homo sapiens, UniProt P49841)
Experimental: as §1

HIPK3 = HIPK3 (Homo sapiens, UniProt Q9H422)
Experimental: as §1

IRR = IRR (Homo sapiens, UniProt P14616)
Experimental: as §1

LKB1 = LKB1 (Homo sapiens, UniProt Q15831)
Experimental: as §1

MARK2 = MARK2 (Homo sapiens, UniProt Q7KZI7)
Experimental: as §1

MARK3 = MARK3 (Homo sapiens, UniProt P27448)
Experimental: as §1

MINK1 = MINK1 (Homo sapiens, UniProt Q8N4C8)
Experimental: as §1

MNK1 = MNK1 (Homo sapiens, UniProt Q9BUB5)
Experimental: as §1

MSK1 = MSK1 (Homo sapiens, UniProt O75582)
Experimental: as §1

NEK2α = NEK2α (Homo sapiens, UniProt P51955)
Experimental: as §1

PAK2 = PAK2 (Homo sapiens, UniProt Q13177)
Experimental: as §1

PAK4 = PAK4 (Homo sapiens, UniProt O96013)
Experimental: as §1

PIM1 = PIM1 (Homo sapiens, UniProt P11309)
Experimental: as §1

PIM2 = PIM2 (Homo sapiens, UniProt Q9P1W9)
Experimental: as §1

PKBβ = PKBβ (Homo sapiens, UniProt P31751)
Experimental: as §1

PKCz = PKCz (Homo sapiens, UniProt Q05513)
Experimental: as §1

PKCα = PKCα (Homo sapiens, UniProt P17252)
Experimental: as §1

PLK1 = PLK1 (Homo sapiens, UniProt P53350)
Experimental: as §1

S6K1 = S6K1 (Homo sapiens, UniProt P23443)
Experimental: as §1

SYK = SYK (Homo sapiens, UniProt P43405)
Experimental: as §1

TTK = TTK (Homo sapiens, UniProt P33981)
Experimental: as §1

Chain of TTK (P33981 whole entry): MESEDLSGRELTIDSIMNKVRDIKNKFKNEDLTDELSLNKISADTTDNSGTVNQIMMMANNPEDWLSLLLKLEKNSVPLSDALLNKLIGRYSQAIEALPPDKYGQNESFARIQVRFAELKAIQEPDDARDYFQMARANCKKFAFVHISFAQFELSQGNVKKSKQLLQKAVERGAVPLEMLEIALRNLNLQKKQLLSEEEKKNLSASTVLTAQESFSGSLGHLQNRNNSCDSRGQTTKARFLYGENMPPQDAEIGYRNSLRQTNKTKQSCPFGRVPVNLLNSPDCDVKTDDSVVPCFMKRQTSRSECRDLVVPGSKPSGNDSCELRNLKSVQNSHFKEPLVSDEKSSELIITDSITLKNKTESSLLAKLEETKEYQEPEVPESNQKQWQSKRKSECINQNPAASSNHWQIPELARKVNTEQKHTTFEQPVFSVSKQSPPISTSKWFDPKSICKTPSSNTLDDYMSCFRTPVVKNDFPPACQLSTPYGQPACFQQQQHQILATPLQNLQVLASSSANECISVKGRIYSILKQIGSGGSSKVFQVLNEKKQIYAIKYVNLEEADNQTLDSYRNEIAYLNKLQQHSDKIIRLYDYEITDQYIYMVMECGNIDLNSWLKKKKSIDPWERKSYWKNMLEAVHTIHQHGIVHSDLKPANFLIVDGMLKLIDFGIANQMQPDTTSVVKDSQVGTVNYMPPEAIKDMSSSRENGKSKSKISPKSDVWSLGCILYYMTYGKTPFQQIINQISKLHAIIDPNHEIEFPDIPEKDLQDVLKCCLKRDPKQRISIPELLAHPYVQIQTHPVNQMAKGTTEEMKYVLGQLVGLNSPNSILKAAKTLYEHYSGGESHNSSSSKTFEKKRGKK
Chain of HIPK3 (Q9H422 whole entry): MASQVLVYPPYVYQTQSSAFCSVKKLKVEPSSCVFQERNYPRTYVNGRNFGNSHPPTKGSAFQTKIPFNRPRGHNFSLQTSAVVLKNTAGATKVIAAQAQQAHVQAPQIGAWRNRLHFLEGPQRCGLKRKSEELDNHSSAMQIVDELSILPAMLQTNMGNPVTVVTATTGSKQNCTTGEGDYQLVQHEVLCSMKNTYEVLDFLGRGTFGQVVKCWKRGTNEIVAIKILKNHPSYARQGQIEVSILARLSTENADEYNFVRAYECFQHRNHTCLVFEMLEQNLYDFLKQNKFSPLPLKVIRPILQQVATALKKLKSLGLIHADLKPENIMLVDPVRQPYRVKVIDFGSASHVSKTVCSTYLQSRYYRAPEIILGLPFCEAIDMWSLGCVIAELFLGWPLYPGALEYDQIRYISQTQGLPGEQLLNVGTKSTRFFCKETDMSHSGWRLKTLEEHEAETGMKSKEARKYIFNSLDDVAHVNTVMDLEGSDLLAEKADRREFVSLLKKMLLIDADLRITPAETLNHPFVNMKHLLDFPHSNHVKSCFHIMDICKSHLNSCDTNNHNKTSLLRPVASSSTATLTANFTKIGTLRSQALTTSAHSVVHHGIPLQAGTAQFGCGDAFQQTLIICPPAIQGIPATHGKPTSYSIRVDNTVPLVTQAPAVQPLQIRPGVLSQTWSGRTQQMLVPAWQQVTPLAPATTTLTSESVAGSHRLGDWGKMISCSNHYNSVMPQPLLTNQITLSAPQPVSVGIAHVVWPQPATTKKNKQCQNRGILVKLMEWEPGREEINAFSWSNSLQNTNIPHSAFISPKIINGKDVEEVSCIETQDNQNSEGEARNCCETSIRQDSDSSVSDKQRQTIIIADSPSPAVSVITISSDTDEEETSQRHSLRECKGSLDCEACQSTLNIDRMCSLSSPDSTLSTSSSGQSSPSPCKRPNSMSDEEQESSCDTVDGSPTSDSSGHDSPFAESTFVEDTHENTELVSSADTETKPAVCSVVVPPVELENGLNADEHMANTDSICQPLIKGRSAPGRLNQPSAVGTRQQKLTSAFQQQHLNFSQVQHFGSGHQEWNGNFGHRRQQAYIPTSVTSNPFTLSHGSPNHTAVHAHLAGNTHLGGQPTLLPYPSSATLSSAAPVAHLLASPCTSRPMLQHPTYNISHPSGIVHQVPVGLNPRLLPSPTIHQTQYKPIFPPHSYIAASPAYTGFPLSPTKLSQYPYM
Chain of PIM1 (P11309 whole entry): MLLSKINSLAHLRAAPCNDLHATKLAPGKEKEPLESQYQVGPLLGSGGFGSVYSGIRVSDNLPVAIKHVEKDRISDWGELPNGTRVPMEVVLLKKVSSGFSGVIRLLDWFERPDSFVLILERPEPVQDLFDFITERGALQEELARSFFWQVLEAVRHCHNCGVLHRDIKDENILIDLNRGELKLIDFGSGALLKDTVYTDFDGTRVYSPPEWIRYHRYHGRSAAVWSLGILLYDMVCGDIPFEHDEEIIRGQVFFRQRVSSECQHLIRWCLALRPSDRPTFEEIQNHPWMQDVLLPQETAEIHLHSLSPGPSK
Chain of PKCz (Q05513 whole entry): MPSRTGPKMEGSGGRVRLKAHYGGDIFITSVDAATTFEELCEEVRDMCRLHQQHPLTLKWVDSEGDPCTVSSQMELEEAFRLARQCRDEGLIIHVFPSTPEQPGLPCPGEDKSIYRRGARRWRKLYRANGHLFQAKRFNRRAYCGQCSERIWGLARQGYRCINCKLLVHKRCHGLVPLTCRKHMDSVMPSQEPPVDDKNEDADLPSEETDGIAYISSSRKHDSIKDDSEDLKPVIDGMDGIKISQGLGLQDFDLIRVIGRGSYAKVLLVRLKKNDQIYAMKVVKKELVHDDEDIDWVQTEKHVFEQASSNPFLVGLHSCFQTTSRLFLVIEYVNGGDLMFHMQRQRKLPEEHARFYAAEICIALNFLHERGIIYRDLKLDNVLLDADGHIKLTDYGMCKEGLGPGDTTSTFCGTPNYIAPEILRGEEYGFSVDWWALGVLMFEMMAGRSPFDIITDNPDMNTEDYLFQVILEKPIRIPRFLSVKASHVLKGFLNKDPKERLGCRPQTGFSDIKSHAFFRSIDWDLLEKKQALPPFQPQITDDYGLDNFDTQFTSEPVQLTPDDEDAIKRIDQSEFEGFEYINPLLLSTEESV
Chain of PLK1 (P53350 whole entry): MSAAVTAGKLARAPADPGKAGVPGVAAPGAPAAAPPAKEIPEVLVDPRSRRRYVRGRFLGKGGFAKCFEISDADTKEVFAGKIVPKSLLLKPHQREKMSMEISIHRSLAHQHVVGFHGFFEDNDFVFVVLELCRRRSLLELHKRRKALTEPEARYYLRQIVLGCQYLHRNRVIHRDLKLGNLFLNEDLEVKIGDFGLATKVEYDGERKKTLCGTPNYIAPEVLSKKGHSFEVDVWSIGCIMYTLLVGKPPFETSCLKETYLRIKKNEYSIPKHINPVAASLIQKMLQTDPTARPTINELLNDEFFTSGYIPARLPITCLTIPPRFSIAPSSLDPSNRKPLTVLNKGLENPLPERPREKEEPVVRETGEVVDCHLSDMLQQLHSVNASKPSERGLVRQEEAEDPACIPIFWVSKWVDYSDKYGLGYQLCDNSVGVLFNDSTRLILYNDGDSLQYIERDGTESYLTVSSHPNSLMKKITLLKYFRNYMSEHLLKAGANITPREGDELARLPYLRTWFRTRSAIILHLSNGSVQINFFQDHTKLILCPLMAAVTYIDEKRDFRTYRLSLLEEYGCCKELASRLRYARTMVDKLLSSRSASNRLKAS
Chain of MARK2 (Q7KZI7 whole entry): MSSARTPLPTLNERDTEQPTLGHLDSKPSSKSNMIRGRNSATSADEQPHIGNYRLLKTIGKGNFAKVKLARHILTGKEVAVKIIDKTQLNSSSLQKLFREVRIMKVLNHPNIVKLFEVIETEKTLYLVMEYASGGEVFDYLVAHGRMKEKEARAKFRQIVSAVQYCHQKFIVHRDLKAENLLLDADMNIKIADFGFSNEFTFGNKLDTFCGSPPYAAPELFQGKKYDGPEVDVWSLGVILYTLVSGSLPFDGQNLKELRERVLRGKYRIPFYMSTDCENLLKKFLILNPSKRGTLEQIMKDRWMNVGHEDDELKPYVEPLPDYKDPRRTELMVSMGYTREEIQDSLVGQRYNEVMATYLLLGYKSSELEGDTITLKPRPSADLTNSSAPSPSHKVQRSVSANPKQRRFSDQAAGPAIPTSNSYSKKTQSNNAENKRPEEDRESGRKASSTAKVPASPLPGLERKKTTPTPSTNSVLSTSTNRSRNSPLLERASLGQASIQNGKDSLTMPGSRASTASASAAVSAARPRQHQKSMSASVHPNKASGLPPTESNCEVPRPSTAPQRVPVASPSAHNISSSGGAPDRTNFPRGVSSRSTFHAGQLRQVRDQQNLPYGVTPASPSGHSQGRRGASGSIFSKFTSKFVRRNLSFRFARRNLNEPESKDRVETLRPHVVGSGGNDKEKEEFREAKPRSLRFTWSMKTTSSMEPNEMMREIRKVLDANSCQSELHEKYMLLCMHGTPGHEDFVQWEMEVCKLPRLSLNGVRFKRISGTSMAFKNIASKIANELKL
Chain of NEK2α (P51955 whole entry): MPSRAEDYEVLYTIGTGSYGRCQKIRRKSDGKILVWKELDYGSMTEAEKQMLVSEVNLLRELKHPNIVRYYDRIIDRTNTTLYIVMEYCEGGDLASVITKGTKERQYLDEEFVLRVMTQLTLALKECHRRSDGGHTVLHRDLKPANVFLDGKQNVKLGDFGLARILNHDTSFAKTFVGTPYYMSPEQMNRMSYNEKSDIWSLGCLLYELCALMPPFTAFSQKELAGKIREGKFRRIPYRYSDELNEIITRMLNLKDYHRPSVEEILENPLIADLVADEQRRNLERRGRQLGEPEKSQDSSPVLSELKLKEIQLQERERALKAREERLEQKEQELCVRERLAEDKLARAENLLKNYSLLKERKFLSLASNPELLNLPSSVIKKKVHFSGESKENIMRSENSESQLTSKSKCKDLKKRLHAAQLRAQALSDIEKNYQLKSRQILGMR

SMILES: Nc1ccc2c(NC3CC3)nc(-c3ccccc3)nc2c1 [1b, N^4-Cyclopropyl-2-phenyl-4,7-quinazolinediamine]
- remaining activity at 10 µM (BTK): 87%
- remaining activity at 10 µM (CK1): 86%
- remaining activity at 10 µM (CK2): 85%
- remaining activity at 10 µM (EPH-B3): 112%
- remaining activity at 10 µM (ERK2): 98%
- remaining activity at 10 µM (FGF-R1): 99%
- remaining activity at 10 µM (GSK3β): 80%
- remaining activity at 10 µM (HIPK3): 115%
- remaining activity at 10 µM (IRR): 104%
- remaining activity at 10 µM (LKB1): 98%
- remaining activity at 10 µM (MARK2): 100%
- remaining activity at 10 µM (MARK3): 99%
- remaining activity at 10 µM (MINK1): 69%
- remaining activity at 10 µM (MNK1): 91%
- remaining activity at 10 µM (MSK1): 96%
- remaining activity at 10 µM (NEK2α): 119%
- remaining activity at 10 µM (PAK2): 90%
- remaining activity at 10 µM (PAK4): 80%
- remaining activity at 10 µM (PIM1): 82%
- remaining activity at 10 µM (PIM2): 76%
- remaining activity at 10 µM (PKBβ): 75%
- remaining activity at 10 µM (PKCz): 96%
- remaining activity at 10 µM (PKCα): 96%
- remaining activity at 10 µM (PLK1): 87%
- remaining activity at 10 µM (S6K1): 96%
- remaining activity at 10 µM (SYK): 99%
- remaining activity at 10 µM (TTK): 92%

Reference: PMC3388095, “Fluorophore Labeled Kinase Detects Ligands That Bind within the MAPK Insert of p38α Kinase” (PLoS ONE, 2012)
